Results as given in publication PMC11062899, “De novo development of small cyclic peptides that are orally bioavailable” (Nature Chemical Biology, 2023).
Where “and” joins values, the source holds several entries; their conditions need not be identical. Equal values may be shown once. Read-outs that look alike come from different tables or passages of the source.

How the values were obtained:
[1] = target: T1, porcine pepsin (Sus scrofa, UniProt P00791); assay: Peptide stability in simulated gastric fluid (SGF); type: in vitro ADME; parameters: remaining at 8 h: dose or concentration left out as unconfirmed; details: for remaining at 8 h: pH 1.2
T1 construct: 0.32 g of porcine pepsin (Sigma-Aldrich, P7125) was dissolved under gentle agitation; purchased Sigma-Aldrich P7125
Method in brief: (§1)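 Peptide from a 1 mM DMSO stock was added to fluid pre-warmed at 37 °C. SGF was pH 1.2 NaCl with porcine pepsin (0.32 g per 100 ml), and SIF was pH 6.8 potassium phosphate with porcine pancreatin (1 g per 100 ml). Supernatant peptide was quantified by LC–MS, with residual expressed as T1/T0.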

[2] = Metabolic stability in rat liver microsomes (RLMs); details: rat, microsomes
[3] = Peptide stability in simulated intestinal fluid (SIF); type: in vitro ADME, porcine; details: simulated gi fluid; 8 h, 37 °C, pH 6.8; read-out: Proteolytic stability: SIF (8 h) % remaining
Method in brief: as §1

[4] = tested on: porcine pancreatin; assay: as above; type: in vitro ADME; details: after 8 h vs 0 h (TIC); average of R1-R3
Method in brief: as §1

[5] = target: T2, rat α-thrombin (Rattus norvegicus, UniProt P18292); assay: Protease inhibition, Ki for rat α-thrombin (fluorogenic substrate Z-Gly-Gly-Arg-AMC); type: biochemical; details: for Slope normalized to DMSO (proteolytic substrate cleavage over time) / Rat alpha thrombin inhibition, slope normalized to DMSO: replicates R1-R3
T2 construct: rat α-thrombin (Molecular Innovations) were used at final concentrations of 2 nM and 3 nM; purchased Molecular Innovations
Method in brief: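 Ki values come from Cheng–Prusoff correction of IC50, itself fitted by four-parameter logistic regression of activity versus a no-peptide control. Assays used 2 nM human or 3 nM rat thrombin, 50 μM Z-Gly-Gly-Arg-AMC, 30 min kinetic fluorescence at 25 °C.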

T1 sequence (P00791 60-385): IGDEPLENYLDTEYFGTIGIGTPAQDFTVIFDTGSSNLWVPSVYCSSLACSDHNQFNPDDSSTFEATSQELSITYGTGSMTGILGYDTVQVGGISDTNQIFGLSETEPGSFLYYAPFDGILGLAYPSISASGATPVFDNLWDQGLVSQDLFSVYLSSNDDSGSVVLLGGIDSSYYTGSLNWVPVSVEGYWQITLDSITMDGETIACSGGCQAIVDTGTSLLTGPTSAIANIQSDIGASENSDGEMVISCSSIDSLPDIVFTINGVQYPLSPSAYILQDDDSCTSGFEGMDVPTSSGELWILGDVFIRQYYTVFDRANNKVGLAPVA

## O=C1C[C@H]2CCCN2C(=O)[C@H](Cc2ccccc2)NC(=O)[C@@H](NC(=O)c2ccc(Cl)s2)CSCCS(=O)(=O)CCSCCN1 [peptide 11]
[1]; after 8 h vs 0 h (TIC), single replicates R1-R3
  SGF stability, Residual peptide: 36.24 and 43.40 and 29.72
[1]; pig, simulated gastric fluid (SGF, USP) with porcine pepsin, after 8 h vs 0 h (TIC), average of R1-R3, read-out: SGF stability, Residual peptide Average
  remaining at 8 h: 36.5%
[1]; simulated gi fluid, 8 h, 37 °C, read-out: Proteolytic stability: SGF (8 h) % remaining
  remaining at 8 h: 36 ± 7%
[2]; CL (ul/min/mg protein) R1, RLM CL, replicate R1
  microsomal CLint: 92.9 µL/min/mg
[2]; CL (ul/min/mg protein) R2, RLM CL, replicate R2
  microsomal CLint: 68.2 µL/min/mg
[2]; CL (ul/min/mg protein) R3, RLM CL, replicate R3
  microsomal CLint: 83.9 µL/min/mg
[2]; Half Life (min) R1, RLM metabolic stability, replicate R1, 0-60 min
  half-life: 14.9 min
[2]; Half Life (min) R2, RLM metabolic stability, replicate R2, 0-60 min
  half-life: 20.3 min
[2]; Half Life (min) R3, RLM metabolic stability, replicate R3, 0-60 min
  half-life: 16.5 min
[2]; Metabolic stability: Half life T1/2 (min), RLMs, mean and SD, three measurements
  half-life: 17.3 ± 2.3 min
[2]; Metabolic stability: RLM CL (ul/min/mg), RLMs, mean and SD, three measurements
  microsomal CLint: 82 ± 10 µL/min/mg
[2]; Metabolic stability: RLM CL Average, summary table, average of R1-R3
  microsomal CLint: 81.7 µL/min/mg
[2]; Metabolic stability: RLM CL R1, summary table, rounded, replicate R1
  microsomal CLint: 92.9 µL/min/mg
[2]; Metabolic stability: RLM CL R2, summary table, rounded, replicate R2
  microsomal CLint: 68.2 µL/min/mg
[2]; Metabolic stability: RLM CL R3, summary table, rounded, replicate R3
  microsomal CLint: 83.9 µL/min/mg
[3]
  remaining at 8 h: 14 ± 4.4%
[4]
  SIF stability, Residual peptide Average: 14.00
[5]; average of R1-R3, read-out: Ki Average
  Ki: 36.8 nM
[5]; peptide 1.02E-03 uM
  Slope normalized to DMSO (proteolytic substrate cleavage over time): 94.9 and 90.5 and 126.3
[5]; peptide 1.04E+00 uM
  Slope normalized to DMSO (proteolytic substrate cleavage over time): 9.4 and 10.0 and 7.6
[5]; peptide 1.27E-04 uM
  Slope normalized to DMSO (proteolytic substrate cleavage over time): 95.1 and 96.6 and 96.3
[5]; peptide 1.30E-01 uM
  Slope normalized to DMSO (proteolytic substrate cleavage over time): 36.1 and 35.6 and 32.6
[5]; peptide 1.33E+02 uM, slope of proteolytic substrate cleavage over time
  Rat alpha thrombin inhibition, slope normalized to DMSO: 7.9 and 5.3 and 6.2
[5]; peptide 1.63E-02 uM
  Slope normalized to DMSO (proteolytic substrate cleavage over time): 78.2 and 76.9 and 78.3
[5]; peptide 1.67E+01 uM
  Rat alpha thrombin inhibition, slope normalized to DMSO: 4.9 and 5.1 and 4.0
[5]; peptide 2.03E-03 uM
  Slope normalized to DMSO (proteolytic substrate cleavage over time): 89.6 and 92.6 and 90.5
[5]; peptide 2.08E+00 uM
  Rat alpha thrombin inhibition, slope normalized to DMSO: 5.8 and 4.5 and 4.3
[5]; peptide 2.54E-04 uM
  Slope normalized to DMSO (proteolytic substrate cleavage over time): 95.9 and 93.5 and 98.7
[5]; peptide 2.60E-01 uM
  Slope normalized to DMSO (proteolytic substrate cleavage over time): 24.9 and 24.5 and 24.7
[5]; peptide 3.18E-05 uM
  Slope normalized to DMSO (proteolytic substrate cleavage over time): 97.8 and 96.7 and 99.3
[5]; peptide 3.26E-02 uM
  Slope normalized to DMSO (proteolytic substrate cleavage over time): 68.3 and 65.8 and 66.5
[5]; peptide 3.33E+01 uM
  Rat alpha thrombin inhibition, slope normalized to DMSO: 4.3 and 4.0 and 4.9
[5]; peptide 4.07E-03 uM
  Slope normalized to DMSO (proteolytic substrate cleavage over time): 90.1 and 88.8 and 91.4
[5]; peptide 4.17E+00 uM
  Rat alpha thrombin inhibition, slope normalized to DMSO: 4.1 and 2.6 and 2.8
[5]; peptide 5.09E-04 uM
  Slope normalized to DMSO (proteolytic substrate cleavage over time): 95.0 and 94.4 and 95.5
[5]; peptide 5.21E-01 uM
  Slope normalized to DMSO (proteolytic substrate cleavage over time): 15.5 and 14.5
[5]; peptide 6.36E-05 uM
  Slope normalized to DMSO (proteolytic substrate cleavage over time): 97.1 and 98.7 and 90.6
[5]; peptide 6.51E-02 uM
  Slope normalized to DMSO (proteolytic substrate cleavage over time): 52.7 and 50.7 and 50.5
[5]; peptide 6.67E+01 uM
  Rat alpha thrombin inhibition, slope normalized to DMSO: 3.6 and 3.0 and 1.8
[5]; peptide 8.14E-03 uM
  Slope normalized to DMSO (proteolytic substrate cleavage over time): 84.4
[5]; peptide 8.33E+00 uM
  Rat alpha thrombin inhibition, slope normalized to DMSO: 4.9 (2×) and 4.3
[5]; single replicates R1-R3, read-out: IC50
  IC50: 71.7 nM and 68.3 nM and 59.7 nM
[5]; single replicates R1-R3, read-out: Ki
  Ki: 39.7 nM and 37.8 nM and 33 nM (2×)
